According to the kinase profiling compilation of Christmann-Franck et al. (2016):

Key:
Assay in all cases: radiometric filter-binding kinase assay
PHKG1 (human) = PHKG1 (human) (UniProt Q16816)
ERBB4 (human) = ERBB4 (human) (UniProt Q15303)
JAK2 JH1 JH2 (human) = JAK2 JH1 JH2 (human) (UniProt O60674)
MAPKAPK2 (human) = MAPKAPK2 (human) (UniProt P49137)
NUAK1 (human) = NUAK1 (human) (UniProt O60285)
PRKACA (human) = PRKACA (human) (UniProt P17612); conditions: compound 10.0 µM
LCK (mouse) = conditions: accession and sequence are those of the human protein
MAPK15 (human) = MAPK15 (human) (UniProt Q8TD08)
PRKAA1 or PRKAA2 (rat) = conditions: accession and sequence are those of the human protein
RPS6KA5 KD1 KD2 (human) = RPS6KA5 KD1 KD2 (human) (UniProt O75582)
PRKCA (human) = PRKCA (human) (UniProt P17252)
MINK1 (human) = MINK1 (human) (UniProt Q8N4C8)
CaMK1 (human) = CaMK1 (human) (UniProt Q14012)
CSK (human) = CSK (human) (UniProt P41240)
MST4 (human) = MST4 (human) (UniProt Q9P289)
PAK7 (human) = PAK7 (human) (UniProt Q9P286)
HIPK3 (human) = HIPK3 (human) (UniProt Q9H422)
INSR (human) = INSR (human) (UniProt P06213)
RIPK2 (human) = RIPK2 (human) (UniProt O43353)
BRSK1 (human) = BRSK1 (human) (UniProt Q8TDC3)
NEK6 (human) = NEK6 (human) (UniProt Q9HC98)
CAMKK2 (human) = CAMKK2 (human) (UniProt Q96RR4)
EPHA4 (human) = EPHA4 (human) (UniProt P54764)
MKNK1 (human) = MKNK1 (human) (UniProt Q9BUB5)
INSRR (human) = INSRR (human) (UniProt P14616)
CDK2 CCNA2 (human) = CDK2 CCNA2 (human) (UniProt P20248+P24941)
EPHB2 (human) = EPHB2 (human) (UniProt P29323)
DYRK2 (human) = DYRK2 (human) (UniProt Q92630)
EPHA2 (human) = EPHA2 (human) (UniProt P29317)
MAP2K1 (human) = MAP2K1 (human) (UniProt Q02750)
SRPK1 (human) = SRPK1 (human) (UniProt Q96SB4)
NEK2 (human) = NEK2 (human) (UniProt P51955)
MARK2 (human) = MARK2 (human) (UniProt Q7KZI7)
MARK1 (human) = MARK1 (human) (UniProt Q9P0L2)
BTK (human) = BTK (human) (UniProt Q06187); conditions: compound 10.0 µM

EPHB2 (human), sequence (P29323 whole entry, looked up): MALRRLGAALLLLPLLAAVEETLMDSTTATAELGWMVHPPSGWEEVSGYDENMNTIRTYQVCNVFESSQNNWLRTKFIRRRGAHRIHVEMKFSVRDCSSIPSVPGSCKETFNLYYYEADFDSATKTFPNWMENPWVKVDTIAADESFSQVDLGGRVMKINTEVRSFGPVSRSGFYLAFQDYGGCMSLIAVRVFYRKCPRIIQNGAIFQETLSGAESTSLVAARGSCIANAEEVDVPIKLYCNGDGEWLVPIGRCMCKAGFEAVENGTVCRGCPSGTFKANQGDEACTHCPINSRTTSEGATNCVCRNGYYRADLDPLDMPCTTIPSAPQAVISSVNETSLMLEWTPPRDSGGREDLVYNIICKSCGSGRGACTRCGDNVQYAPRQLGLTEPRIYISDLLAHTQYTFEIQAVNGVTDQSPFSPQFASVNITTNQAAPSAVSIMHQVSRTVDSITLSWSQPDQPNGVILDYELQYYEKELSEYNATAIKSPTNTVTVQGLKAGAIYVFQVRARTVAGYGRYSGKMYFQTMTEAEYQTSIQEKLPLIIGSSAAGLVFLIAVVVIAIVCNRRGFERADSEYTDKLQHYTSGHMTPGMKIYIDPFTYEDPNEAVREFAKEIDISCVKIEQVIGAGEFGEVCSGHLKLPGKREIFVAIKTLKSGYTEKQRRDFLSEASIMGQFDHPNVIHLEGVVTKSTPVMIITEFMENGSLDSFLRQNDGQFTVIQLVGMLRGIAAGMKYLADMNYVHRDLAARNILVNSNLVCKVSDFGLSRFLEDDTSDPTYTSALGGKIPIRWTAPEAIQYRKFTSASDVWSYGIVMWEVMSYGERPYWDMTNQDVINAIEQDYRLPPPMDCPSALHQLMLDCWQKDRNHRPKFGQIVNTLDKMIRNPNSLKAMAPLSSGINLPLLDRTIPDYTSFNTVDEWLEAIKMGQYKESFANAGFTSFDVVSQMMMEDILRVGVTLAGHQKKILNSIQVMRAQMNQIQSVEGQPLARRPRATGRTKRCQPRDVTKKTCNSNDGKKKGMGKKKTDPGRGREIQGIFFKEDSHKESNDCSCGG
MST4 (human), sequence (Q9P289 whole entry, looked up): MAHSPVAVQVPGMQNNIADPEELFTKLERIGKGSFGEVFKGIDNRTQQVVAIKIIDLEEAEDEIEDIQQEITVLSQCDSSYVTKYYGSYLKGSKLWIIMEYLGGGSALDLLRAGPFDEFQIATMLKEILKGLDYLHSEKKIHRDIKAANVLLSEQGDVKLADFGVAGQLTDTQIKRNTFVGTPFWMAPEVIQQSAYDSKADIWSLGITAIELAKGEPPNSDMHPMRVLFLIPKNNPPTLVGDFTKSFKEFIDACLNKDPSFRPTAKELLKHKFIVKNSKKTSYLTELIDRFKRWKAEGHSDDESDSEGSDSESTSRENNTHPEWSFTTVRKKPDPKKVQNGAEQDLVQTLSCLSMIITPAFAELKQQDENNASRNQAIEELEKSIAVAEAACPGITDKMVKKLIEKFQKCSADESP
CSK (human), sequence (P41240 whole entry, looked up): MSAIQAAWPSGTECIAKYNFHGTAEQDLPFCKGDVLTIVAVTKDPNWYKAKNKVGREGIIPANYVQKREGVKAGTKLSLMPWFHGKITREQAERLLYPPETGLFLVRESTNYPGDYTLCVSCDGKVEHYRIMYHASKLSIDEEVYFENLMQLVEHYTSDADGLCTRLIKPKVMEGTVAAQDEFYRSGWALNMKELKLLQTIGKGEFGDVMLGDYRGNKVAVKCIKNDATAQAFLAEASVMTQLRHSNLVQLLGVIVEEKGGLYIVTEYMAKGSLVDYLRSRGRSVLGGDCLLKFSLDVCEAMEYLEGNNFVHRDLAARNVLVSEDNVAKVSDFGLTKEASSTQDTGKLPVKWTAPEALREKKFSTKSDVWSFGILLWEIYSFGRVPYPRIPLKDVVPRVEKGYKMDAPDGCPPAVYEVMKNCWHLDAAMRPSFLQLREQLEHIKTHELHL
JAK2 JH1 JH2 (human), sequence (O60674 whole entry, looked up): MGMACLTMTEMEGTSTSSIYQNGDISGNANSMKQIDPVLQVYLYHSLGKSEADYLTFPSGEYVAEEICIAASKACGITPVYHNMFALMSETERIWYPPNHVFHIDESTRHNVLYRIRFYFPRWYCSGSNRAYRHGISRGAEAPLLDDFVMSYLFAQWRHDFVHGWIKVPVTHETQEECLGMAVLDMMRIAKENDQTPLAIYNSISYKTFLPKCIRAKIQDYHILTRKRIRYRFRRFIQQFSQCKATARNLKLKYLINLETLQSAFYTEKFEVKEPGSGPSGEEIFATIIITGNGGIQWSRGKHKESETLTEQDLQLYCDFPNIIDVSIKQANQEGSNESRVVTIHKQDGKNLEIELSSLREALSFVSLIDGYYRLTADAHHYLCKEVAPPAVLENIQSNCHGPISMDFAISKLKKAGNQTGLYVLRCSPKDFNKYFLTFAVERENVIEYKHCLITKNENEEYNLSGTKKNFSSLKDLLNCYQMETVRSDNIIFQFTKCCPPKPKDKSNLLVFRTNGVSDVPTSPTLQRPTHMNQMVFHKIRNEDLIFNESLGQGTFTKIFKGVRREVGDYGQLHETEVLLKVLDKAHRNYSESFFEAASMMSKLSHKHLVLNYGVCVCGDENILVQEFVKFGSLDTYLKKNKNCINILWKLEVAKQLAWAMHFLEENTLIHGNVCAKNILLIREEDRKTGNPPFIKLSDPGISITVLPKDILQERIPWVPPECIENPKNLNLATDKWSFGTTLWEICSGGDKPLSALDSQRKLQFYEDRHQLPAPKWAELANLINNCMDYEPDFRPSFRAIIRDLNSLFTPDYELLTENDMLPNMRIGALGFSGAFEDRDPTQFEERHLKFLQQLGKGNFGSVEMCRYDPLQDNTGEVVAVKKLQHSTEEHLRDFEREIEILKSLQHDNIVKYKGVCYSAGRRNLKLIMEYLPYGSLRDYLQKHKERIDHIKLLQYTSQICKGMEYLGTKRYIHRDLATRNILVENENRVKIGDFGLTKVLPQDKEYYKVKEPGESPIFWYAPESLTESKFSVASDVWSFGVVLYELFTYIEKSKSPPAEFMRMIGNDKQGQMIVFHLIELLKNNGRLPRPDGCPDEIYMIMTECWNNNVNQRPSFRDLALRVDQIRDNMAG
HIPK3 (human), sequence (Q9H422 whole entry, looked up): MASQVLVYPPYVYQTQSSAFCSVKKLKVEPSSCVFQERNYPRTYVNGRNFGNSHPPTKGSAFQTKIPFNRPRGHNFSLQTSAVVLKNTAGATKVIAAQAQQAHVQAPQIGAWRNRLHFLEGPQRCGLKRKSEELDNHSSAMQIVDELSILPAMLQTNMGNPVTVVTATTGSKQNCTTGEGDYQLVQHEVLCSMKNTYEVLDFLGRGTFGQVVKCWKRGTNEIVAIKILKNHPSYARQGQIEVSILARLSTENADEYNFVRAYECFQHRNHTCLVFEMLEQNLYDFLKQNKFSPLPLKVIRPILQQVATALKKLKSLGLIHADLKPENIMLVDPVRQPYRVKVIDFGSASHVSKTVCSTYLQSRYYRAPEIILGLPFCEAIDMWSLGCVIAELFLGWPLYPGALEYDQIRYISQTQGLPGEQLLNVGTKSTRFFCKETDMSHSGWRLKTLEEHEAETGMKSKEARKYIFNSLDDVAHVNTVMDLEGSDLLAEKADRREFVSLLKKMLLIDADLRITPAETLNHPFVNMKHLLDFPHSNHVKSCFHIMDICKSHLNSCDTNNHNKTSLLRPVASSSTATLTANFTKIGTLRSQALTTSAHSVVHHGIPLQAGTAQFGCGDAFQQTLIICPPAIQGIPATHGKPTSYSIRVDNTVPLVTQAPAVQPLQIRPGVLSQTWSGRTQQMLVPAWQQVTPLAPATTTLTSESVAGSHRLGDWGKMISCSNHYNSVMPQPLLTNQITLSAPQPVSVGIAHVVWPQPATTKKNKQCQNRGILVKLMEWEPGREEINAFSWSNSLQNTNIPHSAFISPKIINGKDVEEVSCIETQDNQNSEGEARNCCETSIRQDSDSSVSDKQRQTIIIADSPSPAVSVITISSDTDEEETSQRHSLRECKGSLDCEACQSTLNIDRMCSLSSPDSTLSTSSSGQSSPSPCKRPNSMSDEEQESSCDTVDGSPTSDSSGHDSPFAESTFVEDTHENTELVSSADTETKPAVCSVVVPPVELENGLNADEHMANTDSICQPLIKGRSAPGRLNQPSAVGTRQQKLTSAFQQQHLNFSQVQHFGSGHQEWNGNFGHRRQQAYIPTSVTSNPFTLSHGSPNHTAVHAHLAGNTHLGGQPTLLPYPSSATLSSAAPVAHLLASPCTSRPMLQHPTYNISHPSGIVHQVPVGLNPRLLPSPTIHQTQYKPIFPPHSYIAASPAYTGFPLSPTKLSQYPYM
RIPK2 (human), sequence (O43353 whole entry, looked up): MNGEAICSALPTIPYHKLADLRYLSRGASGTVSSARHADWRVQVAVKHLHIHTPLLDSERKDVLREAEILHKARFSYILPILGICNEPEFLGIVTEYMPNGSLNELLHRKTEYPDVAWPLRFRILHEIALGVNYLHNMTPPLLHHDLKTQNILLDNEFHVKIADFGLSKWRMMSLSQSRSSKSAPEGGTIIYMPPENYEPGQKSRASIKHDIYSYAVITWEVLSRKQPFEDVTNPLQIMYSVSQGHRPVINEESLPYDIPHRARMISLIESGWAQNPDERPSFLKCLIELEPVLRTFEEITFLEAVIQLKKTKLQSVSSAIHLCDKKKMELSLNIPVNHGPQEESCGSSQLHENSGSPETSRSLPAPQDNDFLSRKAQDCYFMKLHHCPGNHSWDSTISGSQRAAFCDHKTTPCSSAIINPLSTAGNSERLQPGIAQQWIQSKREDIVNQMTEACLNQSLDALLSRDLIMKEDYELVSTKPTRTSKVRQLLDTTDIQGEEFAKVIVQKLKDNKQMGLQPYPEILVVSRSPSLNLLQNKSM

## CC(C)(C#N)c1ccc(N2C(=O)OCc3cnc4ccc(-c5cnc6ccccc6c5)cc4c32)cc1
PHKG1 (human); compound 1.0 µM
  residual activity: 97%
PHKG1 (human); compound 10.0 µM
  residual activity: 92%
ERBB4 (human); compound 1.0 µM
  residual activity: 110%
ERBB4 (human); compound 10.0 µM
  residual activity: 97%
JAK2 JH1 JH2 (human); compound 1.0 µM
  residual activity: 26%
JAK2 JH1 JH2 (human); compound 10.0 µM
  residual activity: 31%
MAPKAPK2 (human); compound 1.0 µM
  residual activity: 115%
NUAK1 (human); compound 1.0 µM
  residual activity: 32%
NUAK1 (human); compound 10.0 µM
  residual activity: 16%
PRKACA (human)
  residual activity: 92%
LCK (mouse); compound 1.0 µM
  residual activity: 78%
LCK (mouse); compound 10.0 µM
  residual activity: 98%
MAPK15 (human); compound 1.0 µM
  residual activity: 73%
MAPK15 (human); compound 10.0 µM
  residual activity: 67%
PRKAA1 or PRKAA2 (rat); compound 1.0 µM
  residual activity: 91%
PRKAA1 or PRKAA2 (rat); compound 10.0 µM
  residual activity: 89%
RPS6KA5 KD1 KD2 (human); compound 1.0 µM
  residual activity: 74%
RPS6KA5 KD1 KD2 (human); compound 10.0 µM
  residual activity: 53%
PRKCA (human); compound 1.0 µM
  residual activity: 101%
PRKCA (human); compound 10.0 µM
  residual activity: 94%
MINK1 (human); compound 1.0 µM
  residual activity: 72%
MINK1 (human); compound 10.0 µM
  residual activity: 55%
CaMK1 (human); compound 1.0 µM
  residual activity: 73%
CSK (human); compound 1.0 µM
  residual activity: 75%
CSK (human); compound 10.0 µM
  residual activity: 89%
MST4 (human); compound 1.0 µM
  residual activity: 93%
MST4 (human); compound 10.0 µM
  residual activity: 83%
PAK7 (human); compound 1.0 µM
  residual activity: 99%
PAK7 (human); compound 10.0 µM
  residual activity: 80%
HIPK3 (human); compound 1.0 µM
  residual activity: 96%
HIPK3 (human); compound 10.0 µM
  residual activity: 94%
INSR (human); compound 1.0 µM
  residual activity: 96%
INSR (human); compound 10.0 µM
  residual activity: 96%
RIPK2 (human); compound 1.0 µM
  residual activity: 57%
RIPK2 (human); compound 10.0 µM
  residual activity: 38%
BRSK1 (human); compound 1.0 µM
  residual activity: 97%
BRSK1 (human); compound 10.0 µM
  residual activity: 86%
NEK6 (human); compound 1.0 µM
  residual activity: 83%
NEK6 (human); compound 10.0 µM
  residual activity: 40%
CAMKK2 (human); compound 1.0 µM
  residual activity: 69%
CAMKK2 (human); compound 10.0 µM
  residual activity: 59%
EPHA4 (human); compound 1.0 µM
  residual activity: 89%
EPHA4 (human); compound 10.0 µM
  residual activity: 89%
MKNK1 (human); compound 1.0 µM
  residual activity: 89%
MKNK1 (human); compound 10.0 µM
  residual activity: 90%
INSRR (human); compound 1.0 µM
  residual activity: 74%
INSRR (human); compound 10.0 µM
  residual activity: 77%
CDK2 CCNA2 (human); compound 1.0 µM
  residual activity: 90%
CDK2 CCNA2 (human); compound 10.0 µM
  residual activity: 85%
EPHB2 (human); compound 1.0 µM
  residual activity: 93%
EPHB2 (human); compound 10.0 µM
  residual activity: 95%
DYRK2 (human); compound 1.0 µM
  residual activity: 73%
DYRK2 (human); compound 10.0 µM
  residual activity: 85%
EPHA2 (human); compound 1.0 µM
  residual activity: 69%
EPHA2 (human); compound 10.0 µM
  residual activity: 81%
MAP2K1 (human); compound 1.0 µM
  residual activity: 78%
MAP2K1 (human); compound 10.0 µM
  residual activity: 96%
SRPK1 (human); compound 1.0 µM
  residual activity: 90%
SRPK1 (human); compound 10.0 µM
  residual activity: 89%
NEK2 (human); compound 1.0 µM
  residual activity: 108%
NEK2 (human); compound 10.0 µM
  residual activity: 103%
MARK2 (human); compound 1.0 µM
  residual activity: 101%
MARK2 (human); compound 10.0 µM
  residual activity: 95%
MARK1 (human); compound 1.0 µM
  residual activity: 96%
MARK1 (human); compound 10.0 µM
  residual activity: 114%

## O=S(=O)(c1ccc(F)c2nonc12)N1CCN(c2ncc(C(F)(F)F)cc2Cl)CC1
PHKG1 (human); compound 10.0 µM
  residual activity: 90%
ERBB4 (human); compound 10.0 µM
  residual activity: 105%
JAK2 JH1 JH2 (human); compound 10.0 µM
  residual activity: 97%
MAPKAPK2 (human); compound 10.0 µM
  residual activity: 86%
NUAK1 (human); compound 10.0 µM
  residual activity: 90%
PRKACA (human)
  residual activity: 103%
LCK (mouse); compound 10.0 µM
  residual activity: 93%
MAPK15 (human); compound 10.0 µM
  residual activity: 79%
PRKAA1 or PRKAA2 (rat); compound 10.0 µM
  residual activity: 92%
PRKCA (human); compound 10.0 µM
  residual activity: 82%
MINK1 (human); compound 10.0 µM
  residual activity: 89%
CaMK1 (human); compound 10.0 µM
  residual activity: 92%
CSK (human); compound 10.0 µM
  residual activity: 90%
MST4 (human); compound 10.0 µM
  residual activity: 104%
PAK7 (human); compound 10.0 µM
  residual activity: 92%
HIPK3 (human); compound 10.0 µM
  residual activity: 101%
INSR (human); compound 10.0 µM
  residual activity: 93%
RIPK2 (human); compound 10.0 µM
  residual activity: 109%
BRSK1 (human); compound 10.0 µM
  residual activity: 109%
NEK6 (human); compound 10.0 µM
  residual activity: 78%
CAMKK2 (human); compound 10.0 µM
  residual activity: 83%
EPHA4 (human); compound 10.0 µM
  residual activity: 90%
MKNK1 (human); compound 10.0 µM
  residual activity: 70%
INSRR (human); compound 10.0 µM
  residual activity: 102%
CDK2 CCNA2 (human); compound 10.0 µM
  residual activity: 88%
EPHB2 (human); compound 10.0 µM
  residual activity: 102%
DYRK2 (human); compound 10.0 µM
  residual activity: 107%
MAP2K1 (human); compound 10.0 µM
  residual activity: 99%
SRPK1 (human); compound 10.0 µM
  residual activity: 82%
NEK2 (human); compound 10.0 µM
  residual activity: 102%
MARK2 (human); compound 10.0 µM
  residual activity: 95%
BTK (human)
  residual activity: 86%
MARK1 (human); compound 10.0 µM
  residual activity: 109%
